In one data set the test system is L1210. Put plainly: cells. As to conditions: Mus musculus.
The species named for another data set is Mus musculus. As to conditions: in vivo, im.

This note sets out measurements from ChEMBL document CHEMBL1125073, “Antitubulin effects of derivatives of 3-demethylthiocolchicine, methylthio ethers of natural colchicinoids, and thioketones derived from thiocolchicine. Comparison with colchicinoids” (J Med Chem, 1990).

Description for L1210: In vitro cytotoxicity against L1210 (murine leukemia) cells.
Description for Mus musculus: Acute toxicity after intramuscular injection in mice.

As usually defined, the IC50 is the concentration needed to halve the response being measured. As to `COc1c2c(cc3c1-c1ccc(SC)c(=O)cc1[C@@H](NC(C)=O)CC3)OCO2` [THIOCORNIGERINE], inhibition in the data set on L1210 was half-maximal at 10 nM (IC50). Still for that read-out and setting: then `COc1cc2c(c(OC)c1OC)-c1ccc(SC)c(=S)cc1[C@@H](NC(C)=O)CC2`, with 30 nM; and `COc1cc2c(c(OC)c1OC)-c1ccc(SC)c(=S)cc1[C@@H](/N=C(/C)S)CC2`, with 40 nM. Compound `COc1c2c(cc3c1-c1ccc(OC)c(=O)cc1[C@@H](NC(C)=O)CC3)OCO2` displayed a Toxicity in the data set listed under Mus musculus of 9.7 mg/kg.
